The values that follow come from patent US20170066759A1, “AROMATIC 5-MEMBERED HETEROCYCLIC DERIVATIVE HAVING TRPV4-INHIBITING ACTIVITY” (Shionogi & Co., Ltd., priority 2012, published 2017).

The target in experiment [1] is T1, human TRPV4 (hTRPV4/CHO cells) (Homo sapiens, UniProt Q9HBA0).
T1 construct: expressed in transfected cells; host or cells: CHO-K1
Put plainly: Test Example 4: TRPV4 inhibitory activity (Ki value), 4α-PDD stimulation, Fluo-3 calcium fluorescence (FDSS 3000). Format: cell-based. As to conditions: Test Example 4, 4α-PDD stimulation, read-out: Test 4 Ki. The method, then:
TRPV4 Inhibitory Activity (Ki Value)
For each compound, TRPV4 inhibitory activity was measured using cells.
(Method) The procedures of evaluating TRPV4 inhibitory activity of a compound are as follows.
(1) TRPV4 inhibitory activity was measured using CHO-K1 cells stably expressing human TRPV4 (hTRPV4/CHO cells).
(2) Cells were subcultured using the MEM-α medium (SIGMA M4526: 500 ml), FBS (HyCloneSH30070.03: 10%), L-Glutamine 200 mmol/L (GIBCO: 4 mmol/L), P/S (nacalai tesque: 1%), G418 (nacalai tesque: 1 mg/mL).
(3) The 96-well plates which hTRPV4/CHO cells were seeded at densities of 2×10^4 cells/well in the culture medium in the day before the experimental day, and cultured in a CO2 incubator in the presence of 5% CO2 at 37° C. for 24 hours was used as assay plates.
(4) Cells were washed with assay buffer (Hank's Balanced Salt Solution 9.8 g, 1 mol/L HEPES (pH7.5), 250 mmol/L probenecid).
(5) Fluo-3, fluorescent dye for Ca influx assay was added to each well, then the assay plate was incubated in a CO2 incubator in the presence of 5% CO2 at 37° C. for one hour (final conc.; 5 μmol/L Fluo-3).
(6) The assay plate was washed with the assay buffer, and the buffer was remained at 30 μL/well. Then the assay plate was incubated for 10 min at 37° C.
(7) 20 μL of diluted compound solution was added to each well of assay plate, and mixed with built-in Pipette and Mixer of the fluorescence analysis system FDSS 3000 (Hamamatsu Photonics).
(8) 50 μL of 4α-PDD solution (concluding 0.1% Pluronic F-127) was applied to each well of assay plate and mixed.
(9) The fluorescent intensity was measured by FDSS 3000 for 8 min from the point of time addition the compound solution, at Ex 480 nm, Em 540 nm wavelength.
TRPV4 inhibitory activity (Ki value) of a compound was calculated according to the following procedure.
(10) In the presence of the compound, the difference between maximal and minimal of fluorescent intensity value for 8 min from just before addition of 4α-PDD solution was calculated, and it was referred as Max-Min value. Max-Min value of the Ruthenium Red at 10 μM was defined as 100% inhibitory activity, Max-Min value in the absence of the compound was defined as 0% inhibitory activity. TRPV4 inhibitory activity of the compound was calculated by the following formula.
(1−(Max−Min value of the compound−100% inhibitory activity)/(0% inhibitory activity−100% inhibitory activity))×100
(11) By the following formula, inhibitory activity was calculated at 10 points with three fold serial dilution, in the final concentration of the compound from 10 μmol/L to 0.5 nmol/L. The IC50 value was calculated by dose-response curve.
100−[(fluorescent intensity in the presence of the compound−fluorescent intensity of back ground)/(total fluorescent intensity−fluorescent intensity of back ground)]×100
(12) In the presence of the compound, activity of 4α-PDD was measured at 9 points with three fold serial dilution from 20 μmol/L. Activity of 4α-PDD was calculated by the following formula.
(Max−Min value of the each 4α-PDD concentration−0% activity)/(100% activity−0% activity))×100
(13) Effective activity was calculated in 4α-PDD the above. The EC50 value was calculated by dose-response curve.
(14) The Ki value of a compound was calculated by the following formula.
Ki=IC50 value/1+([A]/EC50)
[A]: Concentration of agonist (nmol/L)

In experiment [2] the target is T1, human TRPV4 (hTRPV4/CHO cells). Put plainly: Test Example 1: TRPV4 inhibitory activity (IC50 value), 4α-PDD stimulation, Fluo4 calcium fluorescence (FLIPR TETRA). Format: cell-based. The following applies: Test Example 1, 4α-PDD stimulation, read-out: Test 1 IC50.

T1 sequence (Q9HBA0 whole entry): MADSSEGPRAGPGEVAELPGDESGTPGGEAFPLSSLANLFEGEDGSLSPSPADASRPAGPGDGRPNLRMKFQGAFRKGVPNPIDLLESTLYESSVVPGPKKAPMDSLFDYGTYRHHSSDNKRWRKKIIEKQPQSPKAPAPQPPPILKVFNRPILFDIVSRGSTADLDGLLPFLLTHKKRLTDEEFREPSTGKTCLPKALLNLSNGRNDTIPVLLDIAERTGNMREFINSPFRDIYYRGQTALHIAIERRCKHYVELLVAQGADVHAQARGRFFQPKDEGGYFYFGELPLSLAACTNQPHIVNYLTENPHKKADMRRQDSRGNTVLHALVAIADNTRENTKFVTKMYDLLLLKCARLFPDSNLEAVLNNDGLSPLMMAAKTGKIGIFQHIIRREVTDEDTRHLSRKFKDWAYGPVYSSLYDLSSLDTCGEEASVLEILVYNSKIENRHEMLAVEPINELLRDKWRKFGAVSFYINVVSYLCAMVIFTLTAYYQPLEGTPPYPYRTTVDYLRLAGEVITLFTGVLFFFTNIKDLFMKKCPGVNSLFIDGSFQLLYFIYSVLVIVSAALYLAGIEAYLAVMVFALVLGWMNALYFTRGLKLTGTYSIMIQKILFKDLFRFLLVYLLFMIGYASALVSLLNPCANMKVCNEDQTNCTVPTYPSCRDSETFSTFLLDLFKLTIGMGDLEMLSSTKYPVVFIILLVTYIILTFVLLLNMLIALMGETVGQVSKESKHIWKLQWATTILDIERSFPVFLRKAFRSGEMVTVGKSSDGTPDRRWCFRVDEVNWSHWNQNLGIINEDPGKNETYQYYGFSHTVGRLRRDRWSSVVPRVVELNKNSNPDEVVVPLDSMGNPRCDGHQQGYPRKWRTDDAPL

Consider `Cc1nc(C)c(-c2csc(NC(=O)Cc3ccc(Br)cc3)n2)s1` [Compound I-225], for which the Ki (as a rule, a measure of affinity in units of concentration, obtained from inhibition or displacement) in experiment [1] was under 100 nM. Moreover, the IC50 (commonly the concentration that inhibits the measured activity by half) in experiment [2] is under 100 nM.
`Cc1nc(C)c(-c2csc(NC(=O)C(C)c3ccc(Cl)cc3)n2)s1` (stereo not shown) [Compound I-4]: the Ki in experiment [1] was under 100 nM. Further, the IC50 in experiment [2] was under 100 nM.
Take `Cc1nc(C)c(-c2csc(NC(=O)N(C)c3ccc(Br)cc3)n2)s1` [Compound I-59]: the Ki in experiment [1] was 100 to 1000 nM. The IC50 in experiment [2] fell in the range of 100 to 1000 nM.
For the compound `Cc1nc(C)c(-c2csc(NC(=O)Cc3ccc(C(F)(F)F)cc3)n2)s1` [Compound I-19], in experiment [1], the Ki was under 100 nM. Moreover, the IC50 in experiment [2] was under 100 nM.
`Cc1nc(C)c(-c2csc(NC(=O)C3CCCC3)n2)s1` [Compound I-224]: the Ki in experiment [1] was under 100 nM. Also, the IC50 in experiment [2] lay in the range of 100 to 1000 nM.
The corresponding values for `Cc1nc(C)c(-c2csc(NC(=O)C3CCCCC3)n2)s1` [Compound I-223] are 100 to 1000 nM and 100 to 1000 nM.
Taken in the same sequence, the figures for `Cc1ncc(-c2csc(NC(=O)Cc3ccc(Br)cc3)n2)s1` [Compound I-14] were under 100 nM and under 100 nM.
For the compound `Cc1nc(C)c(-c2csc(NC(=O)C3CC(=O)N(Cc4ccccc4)C3)n2)s1` (stereo not shown) [Compound I-47], in experiment [1], the Ki fell in the range of 100 to 1000 nM. Besides, the IC50 in experiment [2] was in the range of 1000 to 8000 nM.
The corresponding values for `Cc1nc(C)c(-c2csc(NC(=O)C3CCN(c4ccccc4)C3)n2)s1` (stereo not shown) [Compound I-46] are under 100 nM and under 100 nM.
The corresponding values for `Cc1nc(C)c(-c2csc(NC(=O)CC3CC(F)(F)C3(F)F)n2)s1` (stereo not shown) [Compound I-53] are 100 to 1000 nM and 100 to 1000 nM.
The corresponding values for `Cc1nc(C)c(-c2csc(NC(=O)C3CC3)n2)s1` [Compound I-23] are under 100 nM and 100 to 1000 nM.
With `Cc1nc(C)c(-c2csc(NC(=O)Cc3ccc(F)c(Cl)c3)n2)s1` [Compound I-49], in experiment [1], the Ki was under 100 nM. The IC50 in experiment [2] is under 100 nM.
As for `Cc1nc(C)c(-c2csc(NC(=O)Cn3cc(Cl)cn3)n2)s1` [Compound I-50], in experiment [1], the Ki was under 100 nM. The IC50 in experiment [2] is 100 to 1000 nM.
Taken in the same sequence, the figures for `Cc1nc(C)c(-c2csc(NC(=O)C(C)C)n2)s1` [Compound I-32] were under 100 nM and 100 to 1000 nM.
The corresponding values for `Cc1nc(C)c(-c2csc(NC(=O)Cc3ccc(CS(=O)(=O)C(F)(F)F)cc3)n2)s1` [Compound I-35] are under 100 nM and under 100 nM.
Taken in the same sequence, the figures for `Cc1nc(C(F)F)sc1-c1csc(NC(=O)Cc2ccc(S(=O)(=O)C(F)(F)F)cc2)n1` [Compound I-29] were 100 to 1000 nM and 100 to 1000 nM.
Regarding `Cc1nc(C)c(-c2csc(NC(=O)C3Cc4ccccc4C3)n2)s1` [Compound I-43], the Ki in experiment [1] is under 100 nM. Besides, the IC50 in experiment [2] is under 100 nM.
With `Cc1nc(C)c(-c2csc(NC(=O)C3CCC3)n2)s1` [Compound I-226], the Ki in experiment [1] was under 100 nM. Moreover, in experiment [2], the IC50 lay in the range of 100 to 1000 nM.
Regarding `Cc1nc(C)c(-c2csc(NC(=O)C3CC3(F)F)n2)s1` (stereo not shown) [Compound I-27], the Ki in experiment [1] is under 100 nM. Moreover, the IC50 in experiment [2] lay within 100 to 1000 nM.
The corresponding values for `Cc1ncsc1-c1csc(NC(=O)Cc2ccc(Br)cc2)n1` [Compound I-13] are 100 to 1000 nM and under 100 nM.
`Cc1nc(C)c(-c2csc(NC(=O)C3CC(F)(F)C3)n2)s1` [Compound I-34]: in experiment [1], the Ki was under 100 nM. Also, the IC50 in experiment [2] was in the range of 100 to 1000 nM.
Taken in the same sequence, the figures for `Cc1nc(CF)sc1-c1csc(NC(=O)Cc2ccc(S(=O)(=O)C(F)(F)F)cc2)n1` [Compound I-31] were under 100 nM and under 100 nM.
The corresponding values for `Cc1nc(C)c(-c2csc(NC(=O)Cc3ccc(S(=O)(=O)C(F)(F)F)cc3)n2)s1` [Compound I-186] are under 100 nM and under 100 nM.
